Test [1] has as its target T1, hP2X2/3 (Homo sapiens, UniProt P56373+Q9UBL9).
T1 construct: host or cells: TRex293 (hP2X2/3-TRex293), doxycycline-induced
T1 sequence (P56373 1-397): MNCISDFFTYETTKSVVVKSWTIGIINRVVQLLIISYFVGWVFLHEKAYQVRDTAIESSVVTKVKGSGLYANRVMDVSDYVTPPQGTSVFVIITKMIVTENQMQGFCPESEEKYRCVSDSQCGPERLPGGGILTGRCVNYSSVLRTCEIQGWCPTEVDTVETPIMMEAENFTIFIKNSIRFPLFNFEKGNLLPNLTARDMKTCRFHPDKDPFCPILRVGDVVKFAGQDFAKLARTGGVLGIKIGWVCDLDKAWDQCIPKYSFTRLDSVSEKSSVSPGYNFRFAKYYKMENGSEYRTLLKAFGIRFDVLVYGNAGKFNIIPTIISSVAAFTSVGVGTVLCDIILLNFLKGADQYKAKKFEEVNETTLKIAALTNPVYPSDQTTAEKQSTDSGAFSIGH
T1 sequence (Q9UBL9 1-471): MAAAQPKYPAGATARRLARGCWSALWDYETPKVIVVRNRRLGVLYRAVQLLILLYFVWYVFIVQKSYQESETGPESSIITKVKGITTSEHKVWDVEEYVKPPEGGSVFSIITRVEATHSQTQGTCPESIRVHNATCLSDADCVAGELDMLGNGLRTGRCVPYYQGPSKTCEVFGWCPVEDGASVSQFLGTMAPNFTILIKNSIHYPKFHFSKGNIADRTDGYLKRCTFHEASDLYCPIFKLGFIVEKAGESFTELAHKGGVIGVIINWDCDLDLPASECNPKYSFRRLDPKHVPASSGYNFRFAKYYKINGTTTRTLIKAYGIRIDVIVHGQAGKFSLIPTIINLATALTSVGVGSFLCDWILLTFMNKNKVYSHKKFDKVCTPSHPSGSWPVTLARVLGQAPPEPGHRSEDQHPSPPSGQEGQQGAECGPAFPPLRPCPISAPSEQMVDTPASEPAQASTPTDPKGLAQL
The experiment in a line: FLIPR intracellular calcium assay, hP2X2/3. The class given is cell-based. The conditions noted are these: human P2X2/3-TRex293 cells, agonist at EC75. The source says:
(§1) The FLIPR® assay utilizes cells which express human or rat P2X3 or P2X2/3 receptors. Recombinant cells expressing hP2X3 (Cat #6188) and hP2X2/3 (Cat #6179) were procured from Chantest Corp. Rat P2X2 (NCBI Accession No: U14414) was amplified by PCR from PC12 cDNA (a rat adrenal medulla cell line). The PCR product obtained containing the protein coding sequence of rat P2X2 was cloned into EcoRV-digested and dephosphorylated vector plRES-puro3 within the multiple cloning site (MCS). See, FIG. 1A.
(§2) (i) Intracellular Calcium Assay Protocol for Screening Compounds
(§3) Cryo-vial containing 6×10^6 cells (human P2X3-HEK/human P2X2/3-TRex293/rat P2X2/3-TRex293/rat P2X3 TRex-CHO) was thawed in a 37° C. water bath. Cells were suspended in 20 mL of respective cell plating media (See annexure for composition) in a 50 mL centrifuge tube. The cell viability was checked with the help of Trypan Blue dye. Upon washing, cells were plated in a black 384-well clear bottomed, sterile poly-D-lysine coated plate such that, each well contained 10,000 cells (15,000/well for hP2X3) in 30 μL cell plating media. The plate was incubated in a 5% CO2 incubator at 37° C. for 24 h.
(§4) The next day, prior to the assay, the cell plating media was removed from each well by decanting and gentle tapping. Thirty μL of FLIPR Calcium 4 dye solution was added to each well. The plate was incubated at 37° C. for 45 min (60 min for hP2X3). The plate was next equilibrated at room temperature for 15 minutes before placing it in a 384 well FLIPR for the assay.
(§5) Compounds were dissolved in DMSO and serially diluted following 11 point half log (3.16 fold) dilution with a starting concentration of 2 mM. Dilutions were mixed with assay buffer just before performing the assay.
(§6) Compounds were added to the respective wells of the assay-ready cell plate with the help of the FLIPR and fluorescence readings were captured for 5 min to observe any possible agonistic property of the compounds. The plate was then incubated at room temperature for 15 min. The cells were stimulated with respective agonist EC75 concentration and the fluorescence readings were captured for another 5 min by FLIPR. The difference in fluorescence readings in presence of the compounds were compared with that of the control wells (wells having no compound) to calculate the inhibitory potency of the compounds. The IC50 values of the compounds were determined using the Graph pad Prism software.
(§7) (ii) Cell Plating Media for hP2X3-HEK and hP2X2/3-TRex293 Cells • DMEM/F12 (1:1) HAM media (Invitrogen; Cat #11039) • 1×NEAA (Invitrogen; Cat #11140) • 25 mM HEPES (Invitrogen; Cat #15630) • 1 mM sodium pyruvate (Invitrogen; Cat #11360) • 10% tetracycline negative FBS (PAA; Cat #A15-209) • 1 μg/mL doxycycline (Clontech; Cat #63131) [for hP2X2/3-TRex293 cells only]
(§8) (v) Assay Buffer Composition • HBSS (Invitrogen Cat #14025) • 20 mM HEPES (Invitrogen Cat #15630) • 0.01% F127 (Sigma Cat #P2443) • 1.8 mM CaCl2 (Sigma Cat #C5080) • pH adjusted to 7.4
(§9) (vi) Dye Solution Composition • 1× FLIPR Calcium 4 dye in assay buffer (Molecular devices Cat #R8141) • 1.8 mM Probenecid (Sigma Cat #P8761) • pH adjusted to 7.4
On the technique in general: Calcium flux is commonly read through the fluorescence of an indicator in the cells.

Test [2] addresses T2, hP2X3 (Homo sapiens, UniProt P56373).
T2 construct: host or cells: HEK (hP2X3-HEK)
T2 sequence (P56373 1-397): T1 sequence (P56373 1-397)
The experiment in a line: FLIPR intracellular calcium assay, hP2X3. The class given is cell-based. Conditions: human P2X3-HEK cells, agonist at EC75.
Excerpt: as §1, §2, §3, §4, §5, §6, §7, §8, §9

For orientation: IC50 means the point on the concentration scale where inhibition reaches its midpoint.

For the compound `CC(=O)N1CCN(c2nc(N[C@H](C)c3cnc4ccccc4c3)c3c(cnn3CC(C)C)n2)CC1` [Example 16], the results for the IC50 in test [1] and in test [2] were 1000 to 10000 nM and 1 to 100 nM, respectively.
The like results for `CCC(C)n1ncc2nc(N3CCN(C(C)=O)CC3)nc(N[C@@H](C)c3cnc4ccccc4c3)c21` (stereo partly drawn) [Example 18] were, in that order, 1000 to 10000 nM and 100 to 1000 nM.
As to `CC[C@@H](C)n1ncc2nc(N3CCN(C(C)=O)CC3)nc(N[C@H](C)c3cnc4ccccc4c3)c21` [Example 21], the IC50 in test [1] lay in the range of 1000 to 10000 nM; in test [2], 1 to 100 nM.
On the same counts, the results for `CCC(CC)n1ncc2nc(N3CCN(C(C)=O)CC3)nc(N[C@H](C)c3cnc4ccccc4c3)c21` [Example 22] are 1 to 100 nM and 1 to 100 nM.
On the same counts, the results for `CCN1CCN(c2nc(N[C@H](C)c3cnc4ccccc4c3)c3c(cnn3C(C)C)n2)CC1=O` [Example 23] are 1000 to 10000 nM and 1 to 100 nM.
On the same counts, the results for `COCC(C)n1ncc2nc(N3CCN(C(C)=O)CC3)nc(N[C@H](C)c3cnc4ccccc4c3)c21` (stereo partly drawn) [Example 24] are 1000 to 10000 nM and 1 to 100 nM.
`CC(=O)N1CCN(c2nc(N[C@H](C)c3cnc4ccccc4c3)c3c(cnn3C3CCCC3)n2)CC1` [Example 25]: the IC50 was in the range of 1000 to 10000 nM in test [1] and 1 to 100 nM in test [2].
As for `CCC(CC)n1ncc2nc(N3CCN(C(C)=O)CC3)nc(NCC3(c4ccc(Cl)cc4)CCC3)c21` [Example 29], the IC50 in test [1] lay in the range of 1000 to 10000 nM; in test [2], 1 to 100 nM.
The like results for `CCOc1ccc(C(C)Nc2nc(N3CCN(C(C)=O)CC3)nc3cnn(C(CC)CC)c23)cc1` (stereo not drawn) [Example 30] were, in that order, 1000 to 10000 nM and 1 to 100 nM.
For the compound `CCC(C)n1ncc2nc(N3CCN(C(C)=O)CC3)nc(NCC3(c4ccc(Cl)cc4)CCC3)c21` (stereo not drawn) [Example 31], the concentration for half-maximal inhibition (IC50) in test [1] was 1000 to 10000 nM; in test [2] it was 1 to 100 nM.
`CC(=O)N1CCN(c2nc(N[C@H](C)c3cnc4ccccc4c3)c3c(cnn3CC3CCC3)n2)CC1` [Example 32]: the IC50 in test [1] lay in the range of 1000 to 10000 nM; in test [2], 1 to 100 nM.
Take `CCOc1ccc([C@H](C)Nc2nc(N3CCN(C(C)=O)CC3)nc3cnn(C(CC)CC)c23)cc1` [Example 33]: the values for the IC50 in test [1] and in test [2] were 1000 to 10000 nM and 1 to 100 nM, respectively.
The like results for `CC(=O)N1CCN(c2nc(N[C@H](C)c3cnc4ccccc4c3)c3c(cnn3C(C3CC3)C3CC3)n2)CC1` [Example 34] were, in that order, 1 to 100 nM and 1 to 100 nM.
In the case of `CCC(CC)n1ncc2nc(N3CCN(C(C)=O)CC3)nc(N[C@H](CC)c3cnc4ccccc4c3)c21` [Example 35], the IC50 in test [1] lay within 100 to 1000 nM; in test [2], 1 to 100 nM.
On the same counts, the results for `CCC(CC)n1ncc2nc(N3CCN(C(C)=O)CC3)nc(NC(C)c3ccc4occc4c3)c21` (stereo not drawn) [Example 39] are 1000 to 10000 nM and 100 to 1000 nM.
As for `CCC(CC)n1ncc2nc(N3CCN(C(C)=O)CC3)nc(N[C@H](C)c3ccc4ccccc4c3)c21` [Example 40], the IC50 fell in the range of 100 to 1000 nM in test [1] and 1 to 100 nM in test [2].
For the compound `CCC(CC)n1ncc2nc(N3CCN(C(C)=O)CC3)nc(NC(C)c3cnc4ccc(F)cc4c3)c21` (stereo not drawn) [Example 42], the IC50 was 100 to 1000 nM in test [1] and 1 to 100 nM in test [2].
As to `CCC(C)n1ncc2nc(N3CCN(C(C)=O)CC3)nc(N[C@H](CC)c3cnc4ccccc4c3)c21` (stereo partly drawn) [Example 43], the IC50 in test [1] fell in the range of 1000 to 10000 nM; in test [2] it was 1 to 100 nM.
The like results for `CCC(CC)n1ncc2nc(N3CCN(C(C)=O)CC3)nc(N[C@@H](c3cnc4ccccc4c3)C3CC3)c21` [Example 44] were, in that order, 1 to 100 nM and 1 to 100 nM.
The like results for `CCC(C)n1ncc2nc(N3CCN(C(C)=O)CC3)nc(NC(C)c3ccc4oc(C)cc4c3)c21` (stereo not drawn) [Example 45] were, in that order, 1000 to 10000 nM and 1 to 100 nM.
For `CCC(CC)n1ncc2nc(N3CCN(C(C)=O)CC3)nc(NC(C)c3ccc4oc(C)cc4c3)c21` (stereo not drawn) [Example 46], the IC50 was 100 to 1000 nM in test [1] and 1 to 100 nM in test [2].
Take `CCC(CC)n1ncc2nc(N3CCN(C(C)=O)CC3)nc(NC(C)c3ccc(OC(C)C)cc3)c21` (stereo not drawn) [Example 47]: the IC50 in test [1] was 1000 to 10000 nM; in test [2] it was 1 to 100 nM.
On the same counts, the results for `CC(=O)N1CCN(c2nc(N[C@H](C)c3cnc4ccccc4c3)c3c(cnn3C3CCC3)n2)CC1` [Example 48] are 1000 to 10000 nM and 1 to 100 nM.
Take `C[C@@H](Nc1nc(N2CCN(C)C(=O)C2)nc2cnn(C3CCC3)c12)c1cnc2ccccc2c1` [Example 49]: the IC50 in test [1] fell in the range of 1000 to 10000 nM; in test [2], 1 to 100 nM.
The like results for `CCC(CC)n1ncc2nc(N3CCN(C(N)=O)CC3)nc(N[C@H](C)c3cnc4ccccc4c3)c21` [Example 51] were, in that order, 1 to 100 nM and 1 to 100 nM.
Turning to `CCC(C)n1ncc2nc(N3CCN(C(C)=O)CC3)nc(NC(C)c3ccc(-c4ccccc4)nc3)c21` (stereo not drawn) [Example 52], the half-maximal inhibitory concentration (IC50) fell in the range of 1000 to 10000 nM in test [1] and 1 to 100 nM in test [2].
Regarding `CCC(CC)n1ncc2nc(N3CCN(C(C)=O)CC3)nc(NC(C)c3ccc4oc(C5CC5)cc4c3)c21` (stereo not drawn) [Example 55], the IC50 is 100 to 1000 nM in test [1] and 1 to 100 nM in test [2].
The like results for `CCC(C)n1ncc2nc(N3CCN(C(C)=O)CC3)nc(N[C@@H](c3cnc4ccccc4c3)C3CC3)c21` (stereo partly drawn) [Example 56] were, in that order, 100 to 1000 nM and 1 to 100 nM.
For `CCC(CC)n1ncc2nc(N3CCN(C(C)=O)CC3)nc(NC(C)c3ccc4sccc4c3)c21` (stereo not drawn) [Example 57], the IC50 in test [1] lay in the range of 100 to 1000 nM; in test [2], 1 to 100 nM.
Turning to `CCC(C)n1ncc2nc(N3CCN(C(C)=O)CC3)nc(NC(c3ccc(-c4ccccc4)nc3)C3CC3)c21` (stereo not drawn) [Example 58], the IC50 in test [1] was in the range of 1000 to 10000 nM; in test [2] it was 1 to 100 nM.
The like results for `CC(C)n1ncc2nc(N3CCN(C)C(=O)C3)nc(N[C@@H](c3cnc4ccccc4c3)C3CC3)c21` [Example 59] were, in that order, 100 to 1000 nM and 1 to 100 nM.
For `CC(=O)N1CCN(c2nc(N[C@H](C)c3cnc4ccccc4c3)c3c(cnn3C(C)C(C)C)n2)CC1` (stereo partly drawn) [Example 60], the results for the IC50 in test [1] and in test [2] were 100 to 1000 nM and 1 to 100 nM, respectively.
The like results for `CCC(CC)n1ncc2nc(N3CCN(C(C)=O)CC3)nc(N[C@H](C)c3cnc4ccc(F)cc4c3)c21` [Example 61] were, in that order, 100 to 1000 nM and 1 to 100 nM.

Source of the values: patent US11339169B2, “P2X3 and/or P2X2/3 compounds and methods” (Asana BioSciences, LLC, priority 2016, dated 2022).
